The values that follow come from ChEMBL document CHEMBL4354864, “Bicyclic α-Iminophosphonates as High Affinity Imidazoline I2 Receptor Ligands for Alzheimer's Disease” (J Med Chem, 2020).

The nature of test [1]: Displacement of [3H]2-BFI from I2IR in Sprague-Dawley rat brain cortex incubated for 45 mins by liquid scintillation spectrometry.
Test [2] is described as follows: Displacement of [3H]2-BFI from I2IR in Swiss mouse brain cortex incubated for 45 mins by liquid scintillation spectrometry. In general terms: Loss of bound radioactivity is the signal in a displacement assay; it reports binding, not function.
Test [3] in a line: Displacement of [3H]2-BFI from I2IR in human brain frontal cortex assessed as binding affinity at high affinity site incubated for 45 mins by liquid scintillation spectrometry. It counts as tissue-based.
The nature of test [4]: Displacement of [3H]2-BFI from I2IR in Sprague-Dawley rat brain cortex assessed as binding affinity at low binding site incubated for 45 mins by liquid scintillation spectrometry.
Test [5] is described as follows: Displacement of [3H]2-BFI from I2IR in human brain frontal cortex assessed as binding affinity at low affinity site incubated for 45 mins by liquid scintillation spectrometry. It counts as tissue-based.
Test [6] is filed under the species Homo sapiens. Nature of the test: Displacement of [3H]2-BFI from I2IR in human brain frontal cortex assessed as binding affinity at high affinity site incubated for 45 mins by liquid scintillation spectrometry relative to control. It counts as tissue-based. More on the design: concentration or dose not given beside the values.
The nature of test [7]: Displacement of [3H]2-BFI from I2IR in Sprague-Dawley rat brain cortex assessed as binding affinity at high binding site incubated for 45 mins by liquid scintillation spectrometry.
For a further test, the species on record is Rattus norvegicus. Nature of the test: Displacement of [3H]2-BFI from I2IR in Sprague-Dawley rat brain cortex assessed as binding affinity at high binding site incubated for 45 mins by liquid scintillation spectrometry relative to control.
A short description of test [8]: Displacement of [3H]2-BFI from I2IR in Wistar rat brain cortex incubated for 90 mins by radioligand binding assay.
The target in test [9] is T1, Alpha-2A adrenergic receptor (Homo sapiens, UniProt P08913).
T1 sequence (P08913 whole entry): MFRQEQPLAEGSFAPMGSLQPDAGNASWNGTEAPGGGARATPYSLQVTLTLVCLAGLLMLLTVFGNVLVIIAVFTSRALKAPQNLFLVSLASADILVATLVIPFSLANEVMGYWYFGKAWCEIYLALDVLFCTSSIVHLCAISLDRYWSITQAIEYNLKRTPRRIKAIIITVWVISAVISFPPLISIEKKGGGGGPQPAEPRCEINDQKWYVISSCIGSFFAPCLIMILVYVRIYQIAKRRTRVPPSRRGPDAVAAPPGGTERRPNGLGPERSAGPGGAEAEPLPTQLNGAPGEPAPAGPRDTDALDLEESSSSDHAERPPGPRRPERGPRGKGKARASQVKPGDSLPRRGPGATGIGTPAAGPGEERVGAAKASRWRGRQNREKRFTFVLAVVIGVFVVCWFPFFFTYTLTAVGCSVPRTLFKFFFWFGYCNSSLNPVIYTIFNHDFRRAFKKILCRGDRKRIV
In words: biochemical.
Description: Displacement of [3H]RX821002 from alpha2-AR in human brain frontal cortex incubated for 30 mins by liquid scintillation spectrometry

For test [10], the species on record is Homo sapiens. Nature of the test: Selectivity ratio of Ki for alpha2-AR high binding site in human brain frontal cortex to Ki for I2IR high binding site in human brain frontal cortex.

Broadly, the pKi is −log10 of the Ki, conventionally taken in molar units. For `c1ccc2c(c1)OCC(C1=NCCN1)O2` (stereo unspecified) [IDAZOXAN], the pKi in [1] was 7.17; in test [2] it was 5.68; in [3], 7.74.

As a reminder, the Ki is the dissociation constant of the complex between target and ligand, obtained from inhibition or displacement. Usually inhibition stands for the change of the read-out against control, counted positive when it falls. As to `Cn1c(C2=NCCN2)cc2ccccc21`, the inhibition constant (Ki) was found to be 0.239 µM in [4] and 0.0014 µM in test [7]. Besides, the pKi in [5] worked out at 3.82; in test [3], 6.89. Besides, the Activity in the test filed under Homo sapiens [6] was 51%. The inhibition in the test filed under Rattus norvegicus came to 58%.

The IC50 is the concentration that gives 50% inhibition. With `c1ccc(-c2ncc3cc(-n4ccnc4)ccc3n2)cc1`, the negative logarithm of the Ki (pKi) turned out to be 5.45 in test [5] and 7.72 in test [3]. Besides, the IC50 in [8] came to 0.596 µM. Further, the Ki was 0.019 µM in test [8] and 2240 µM in test [9]. Moreover, the Activity in the test filed under Homo sapiens [6] was 29%. Moreover, the Ratio Ki in the test listed under Homo sapiens [10] came out at 117000.
